Laboratory results reported in article PMC6958387, “Biological Evaluation of Arylsemicarbazone Derivatives as Potential Anticancer Agents” (Pharmaceuticals, 2019).

Legend:
[1] = test system: HL-60 cells; assay: Mitochondrial transmembrane potential (rhodamine 123), flow cytometry; assay type: cell-based, human; conditions: 0.11 μM, 72 h
Experimental: In this sense, in order to evaluate if compounds 3c and 4a induce apoptosis by alterating the mitochondria transmembrane potential, this assay was performed by flow cytometry using the fluorochrome rhodamine 123, because this is able to accumulate in cells with unchanged mitochondrial transmembrane potential.
(§1) HL-60 cells (3 × 10^5) were plated in 24-well plates and treated with the compounds 3c (13 and 26 μM) and 4a (11 and 22 μM) for 72 h at 37 °C with 5% CO2. In all trials, doxorubicin was used as a positive control. After the incubation period, an aliquot of 500 μL of treated and untreated cells suspension was transferred to an Eppendorf tube and centrifuged to remove the supernatant and continue the protocol of the test. In the cell viability and annexin V assays, kits were used, ViaCount kit and guava nexin kit (Guava Technologies), respectively. The protocols performed in these tests followed the manufacturer’s instructions. For to analyze mitochondrial depolarization, rhodamine 123 fluorescent dye was used. In the assay for cell cycle analysis and DNA fragmentation propidium iodide was used. The experiments were performed on Guava EasyCyte HT (Merck-Millipore) flow cytometer, acquiring 5000 events. The data were analyzed in Guava-Soft™ software version 2.7. Three independent experiments were performed in triplicate.

[2] = test system: Peripheral Blood Mononuclear Cells (PBMCs); assay: MTT cytotoxicity in normal cells, 72 h; assay type: cell-based, human; conditions: Homo sapiens, PBMC, 72 h of incubation
Experimental: In order to evaluate the cytotoxic potential in normal cells, all the derivatives were tested against Peripheral Blood Mononuclear Cells (PBMCs) and the most promising compounds were again compounds 3c and 4a, which offered more selectivity against the cancer cells.
Mononuclear cells were obtained from the peripheral blood of healthy volunteers by heparin tube collection and isolated by Ficoll-Histopaque gradient centrifugation. After centrifugation, the cells were harvested, washed and resuspended in RPMI 1640 medium supplemented with 20% fetal bovine serum, 2 mM glutamine, 100 U/mL penicillin and 100 μg/mL streptomycin (Gibco™ Life Technologies, Waltham, MA, USA). The phytohemagglutinin mitogen 2% was also added into the culture medium. After that, using the neubauer chamber, the cells were counted and plated in a 96-well plate at a concentration of 10^6 cells/mL and then were maintained for overnight under incubation at 37 °C and 5% CO2 [65].
(§2) The evaluation of the cytotoxicity of the compounds was performed by the method of 3-(4,5-dimethyl-2-thiazolyl)-2,5-diphenyl-2H-tetrazolium bromide (MTT) (Sigma Aldrich Co., St. Louis, MO, USA). To perform the assay the cells were seeded in 96-well plates at the following concentrations: HL-60 and K562 (0.3 × 10^6 cells/mL); MOLT-4 and PBMC (10^6 cells/mL); NCI-H292, HT-29, HEp-2 e MCF-7 (10^5 cells/mL). Briefly, the compounds previously dissolved in DMSO (dimethylsulfoxide, Vetec, São Paulo, Brazil), were diluted in medium and added to each well at the desired concentrations. For the calculation of the concentration that inhibits 50% of cell growth (IC50) the compounds were serially diluted to obtain the final concentrations between 0.19–25 μg/mL. Doxorubicin was used as the standard in the concentration range between (0.078–10 μg/mL). After 72 h of contact of the cells with the compounds, it was added to each well 25 μL of MTT solution (5 mg/mL). Plates were left for another 3 h in incubator at 37 °C and at the end of that period the supernatant was aspirated. To perform the reading, 100 μL of DMSO was added in each well for the dissolution of the formazan crystals. The amount of formazan was measured by reading the plate at 560 nm absorbance. The IC50 was calculated from the nonlinear regression in the Prisma 7.0 software (GraphPad, San Diego, CA, USA). Each sample was tested in triplicate in three independent experiments.

[3] = test system: HL-60 cells; assay: Annexin V-FITC/7-AAD test, flow cytometry; assay type: cell-based, human; conditions: 0.11 μM, 72 h
Experimental: Aiming to better study the mechanism of induction of death involved in HL-60 cells after treatment with compounds 3c and 4a, a flow cytometric test was performed after double staining with annexin V-FITC/7-AAD. This assay is based on the ability of annexin V to bind with high affinity to phosphatidylserine which is translocated to the outer membrane of apoptotic cells and the 7-AAD dye binds to the DNA of cells with loss of membrane integrity. Thus, in this test it is possible to identify four distinct populations: viable cells [Annexin V(−) and 7-AAD(−)], initial apoptotic cells [Annexin V(+) and 7-AAD(−)], late apoptotic cells [Annexin V(+) and 7-AAD(+)] and dead cells [Annexin V(−) and 7-AAD (+)] [59].
as §1

[4] = test system: K562; assay: MTT cytotoxicity, 72 h; assay type: cell-based, human; conditions: Homo sapiens, K562, 72 h of incubation
Experimental: (§3) The cytotoxicity assessment was performed against three human cancer cell lines in suspension (K562, HL-60 and MOLT-4) and four adhered (HEp-2, NCI-H292, HT-29 and MCF-7).
(§4) The cells were obtained from the Cell Bank of Rio de Janeiro and maintained in the Laboratory of Cell Culture of the Department of Antibiotics of the Federal University of Pernambuco. The lines K562 (myeloblastic leukaemia), HL-60 (promyelocytic leukemia) and MOLT-4 (lymphoblastic leukemia) were cultured in RPMI 1640 medium and the lines HEp-2 (larynx carcinoma), NCI-H292 (lung carcinoma), HT-29 (colon adenocarcinoma) and MCF-7 (breast adenocarcinoma) were cultured in DMEM medium, supplemented with 10% fetal bovine serum, 2 mM glutamine, 100 U/mL penicillin and 100 μg/mL streptomycin (Gibco™ Life Technologies), at 37 °C and 5% CO2.
as §2

[5] = test system: HT-29; assay: MTT cytotoxicity, 72 h; assay type: cell-based, human; conditions: Homo sapiens, HT-29, 72 h of incubation
Experimental: as §3, §4, §2

[6] = test system: HEp-2; assay: MTT cytotoxicity, 72 h; assay type: cell-based, human; conditions: Homo sapiens, HEp-2, 72 h of incubation
Experimental: as §3, §4, §2

[7] = test system: HL-60; assay: MTT cytotoxicity, 72 h; assay type: cell-based, human; conditions: Homo sapiens, HL-60; MTT, 72 h of incubation
Experimental: as §3, §4, §2

[8] = test system: NCI-H292; assay: MTT cytotoxicity, 72 h; assay type: cell-based, human; conditions: Homo sapiens, NCI-H292, 72 h of incubation
Experimental: as §3, §4, §2

[9] = test system: MCF-7; assay: MTT cytotoxicity, 72 h; assay type: cell-based, human; conditions: Homo sapiens, MCF7, 72 h of incubation
Experimental: as §3, §4, §2

[10] = test system: MOLT-4; assay: MTT cytotoxicity, 72 h; assay type: cell-based, human; conditions: Homo sapiens, MOLT-4, 72 h of incubation
Experimental: as §3, §4, §2

[11] = test system: K562, HL-60, MOLT-4, HEp-2, NCI-H292, HT-29 and MCF-7 tumor cell lines; assay: Cytotoxic screening against the panel of tumor cell lines (MTT); assay type: cell-based, human; conditions: result in words
Experimental: as §3, §4
as §2, with “Plates were left for another 3 h in incubator at 37 °C and at the end of that period the supernatant was aspirated.” left out, “Each sample was tested in triplicate in three independent experiments.” left out

Row | melting point | SMILES | depolarized cells [1] | IC50 [2] | cells in initial apoptosis [Annexin V(+) and 7-AAD(−)] [3] | cells in late apoptosis [Annexin V(+) and 7-AAD(+)] [3] | IC50 [4] | IC50 [5] | IC50 [6] | IC50 [7] | IC50 [8] | IC50 [9] | IC50 [10] | antiproliferative activity against the tested cell lines [11]
1 |  | COc1cccc2c1C(=O)c1c(O)c3c(c(O)c1C2=O)C[C@@](O)(C(=O)CO)C[C@@H]3O[C@H]1C[C@H](N)[C@H](O)[C@H](C)O1 [Doxo, doxorubicin, reference compound] | 41.8% | 5330 ± 620 nM | 23.7% | 19% | 1470 ± 90 nM | 730 ± 90 nM | 1280 ± 110 nM | 110 ± 10 nM | 180 ± 20 nM | 200 ± 30 nM | 730 ± 80 nM | 
2 | 202 to 204 °C | NC(=O)N/N=C/c1ccco1 [Compound 3l, 2-Furfuraldehyde Semicarbazone] |  | > 100000 nM |  |  | > 100000 nM | > 100000 nM | > 100000 nM | > 100000 nM | > 100000 nM | > 100000 nM | > 100000 nM | inactive
